Experiments:
Format in all cases: functional
Conditions in all cases: read-out: DIZ
Escherichia coli [1] = test: Antibacterial activity against Escherichia coli at 0.25 mol/L after 12 to 24 hrs by paper disc method
Staphylococcus aureus [2] = test: Antibacterial activity against Staphylococcus aureus at 0.06 mol/L after 12 to 24 hrs by paper disc method
Staphylococcus aureus [3] = test: Antibacterial activity against Staphylococcus aureus at 0.13 mol/L after 12 to 24 hrs by paper disc method
Aspergillus niger [4] = test: Antifungal activity against Aspergillus niger at 0.13 mol/L after 2 to 4 days by paper disc method
Aspergillus niger [5] = test: Antifungal activity against Aspergillus niger at 0.06 mol/L after 2 to 4 days by paper disc method
Penicillium citrinum [6] = test: Antifungal activity against Penicillium citrinum at 0.13 mol/L after 2 to 4 days by paper disc method
Penicillium citrinum [7] = test: Antifungal activity against Penicillium citrinum at 0.25 mol/L after 2 to 4 days by paper disc method
Escherichia coli [8] = test: Antibacterial activity against Escherichia coli at 0.03 mol/L after 12 to 24 hrs by paper disc method
Aspergillus niger [9] = test: Antifungal activity against Aspergillus niger at 0.25 mol/L after 2 to 4 days by paper disc method
Staphylococcus aureus [10] = test: Antibacterial activity against Staphylococcus aureus at 0.03 mol/L after 12 to 24 hrs by paper disc method
Escherichia coli [11] = test: Antibacterial activity against Escherichia coli at 0.06 mol/L after 12 to 24 hrs by paper disc method
Escherichia coli [12] = test: Antibacterial activity against Escherichia coli at 0.13 mol/L after 12 to 24 hrs by paper disc method
Staphylococcus aureus [13] = test: Antibacterial activity against Staphylococcus aureus at 0.25 mol/L after 12 to 24 hrs by paper disc method
Aspergillus niger [14] = test: Antifungal activity against Aspergillus niger at 0.03 mol/L after 2 to 4 days by paper disc method
Penicillium citrinum [15] = test: Antifungal activity against Penicillium citrinum at 0.03 mol/L after 2 to 4 days by paper disc method
Penicillium citrinum [16] = test: Antifungal activity against Penicillium citrinum at 0.06 mol/L after 2 to 4 days by paper disc method

| Structure (SMILES) | zone of inhibition at 250000 µM (Escherichia coli [1]) [mm] | zone of inhibition at 60000 µM (Staphylococcus aureus [2]) [mm] | zone of inhibition at 130000 µM (Staphylococcus aureus [3]) [mm] | zone of inhibition at 130000 µM (Aspergillus niger [4]) [mm] | zone of inhibition at 60000 µM (Aspergillus niger [5]) [mm] | zone of inhibition at 130000 µM (Penicillium citrinum [6]) [mm] | zone of inhibition at 250000 µM (Penicillium citrinum [7]) [mm] | zone of inhibition at 30000 µM (Escherichia coli [8]) [mm] | zone of inhibition at 250000 µM (Aspergillus niger [9]) [mm] | zone of inhibition at 30000 µM (Staphylococcus aureus [10]) [mm] | zone of inhibition at 60000 µM (Escherichia coli [11]) [mm] | zone of inhibition at 130000 µM (Escherichia coli [12]) [mm] | zone of inhibition at 250000 µM (Staphylococcus aureus [13]) [mm] | zone of inhibition at 30000 µM (Aspergillus niger [14]) [mm] | zone of inhibition at 30000 µM (Penicillium citrinum [15]) [mm] | zone of inhibition at 60000 µM (Penicillium citrinum [16]) [mm] |
| --- | --- | --- | --- | --- | --- | --- | --- | --- | --- | --- | --- | --- | --- | --- | --- | --- |
| CC(C)[C@H](/N=C/C=C/c1ccccc1)C(=O)O | 9 | 8 | 8 | 12.3 | 13 | 9.7 | 12.5 | 8 | 12.7 | 8 | 11 | 8 | 8 | 8 | 9 | 8 |
| O=C(O)[C@H](Cc1ccc(O)cc1)/N=C/C=C/c1ccccc1 | 31.3 | 8 | 11.5 | 18.7 | 12.3 | 11.5 | 12 | 12 | 12 | 8 | 8 | 19.5 | 14.2 | 8 | 12.3 | 11 |
| CC(C)C[C@H](/N=C/C=C/c1ccc(Cl)cc1)C(=O)O | 17 | 16.8 | 11 | 20.7 | 18.7 | 25.7 | 28.3 | 9.3 | 29.3 | 8.7 | 10 | 17.8 | 28.3 | 18.3 | 16.5 | 19.7 |
| O=C(O)[C@H](Cc1ccc(O)cc1)/N=C/C=C/c1ccc(Cl)cc1 | 17.8 | 11.7 | 12.7 | 15.7 | 15.5 | 23.5 | 25 | 13.7 | 29.7 | 9.7 | 15.7 | 12 | 19.3 | 12.3 | 11.5 | 15.7 |
| COc1ccc(/C=C/C=N/[C@H](C(=O)O)C(C)C)cc1 | 9 | 8 | 8 | 13.3 | 10.3 | 11.7 | 14.3 | 8 | 16.7 | 8 | 12 | 8 | 9 | 9 | 8 | 12.7 |
| COc1ccc(/C=C/C=N/[C@@H](CC(C)C)C(=O)O)cc1 | 13 | 8 | 8 | 16 | 10.5 | 12 | 17.7 | 8 | 19 | 9.7 | 9.3 | 14 | 10.8 | 9.7 | 12 | 10 |
| COc1ccc(/C=C/C=N/[C@@H](Cc2ccc(O)cc2)C(=O)O)cc1 | 18 | 8 | 8.7 | 14.7 | 13.8 | 16.5 | 24 | 12 | 19.5 | 8 | 8.3 | 12.3 | 8.5 | 10.3 | 10.8 | 19 |
| O=C(O)[C@H](Cc1ccccc1)/N=C/C=C/c1ccccc1 | 8 | 8 | 8 | 9.2 | 8.7 | 9.7 | 10.7 | 8 | 10.7 | 10 | 8 | 8 | 11 | 8 | 8 | 8 |
| COc1ccc(/C=C/C=N/[C@@H](Cc2ccccc2)C(=O)O)cc1 | 12.3 | 8 | 8.3 | 13 | 10.8 | 19.7 | 24.7 | 13.2 | 19 | 8 | 8 | 13.8 | 12 | 18.3 | 14 | 10.5 |
| CC(C)C[C@H](/N=C/C=C/c1ccccc1)C(=O)O | 10 | 8.2 | 8 | 9.8 | 8 | 9 | 10.5 | 8 | 16.3 | 8 | 8 | 8.3 | 8 | 8 | 8.5 | 9.3 |
| CC(/N=C/C=C/c1ccc(Cl)cc1)C(=O)O (stereo not drawn) | 12.2 | 10.5 | 33.5 | 24.7 | 19.3 | 26.3 | 30.3 | 12 | 26.7 | 8.7 | 11.5 | 12.5 | 33.7 | 13.8 | 17.3 | 24.7 |
| CC(C)[C@H](/N=C/C=C/c1ccc(Cl)cc1)C(=O)O | 20.5 | 13.5 | 15.3 | 24 | 19 | 31 | 33.5 | 12 | 27.3 | 11 | 11 | 15.3 | 33 | 15.7 | 20.7 | 19.5 |
| O=C(O)[C@H](Cc1ccccc1)/N=C/C=C/c1ccc(Cl)cc1 | 19.5 | 13.3 | 29 | 19.7 | 21 | 23.2 | 35 | 9.2 | 26 | 9 | 19 | 26 | 33 | 12.3 | 18.3 | 21 |
| O=C(O)c1cn(C2CC2)c2cc(N3CCNCC3)c(F)cc2c1=O [CIPROFLOXACIN] | 24.3 | 16.7 | 21 |  |  |  |  | 22.3 |  | 16 |  | 23.3 | 21 |  |  |  |
| OC(Cn1cncn1)(Cn1cncn1)c1ccc(F)cc1F [FLUCONAZOLE] |  |  |  | 18.7 | 17.7 | 13 | 13.3 |  | 25 |  |  |  |  | 14.5 | 8 | 9.2 |
